Measurements as given in ChEMBL document CHEMBL1201862, “PubChem BioAssay data set” (2004).
The source made the active and inactive calls.

How the values were obtained:
[1] = molecular target: Voltage-dependent T-type calcium channel subunit alpha-1H (Homo sapiens, UniProt O95180); type: functional;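 note: channel activity triggered by adding a high calcium stimulation buffer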
[2] = molecular target: Nonstructural protein 1 (Influenza A virus, UniProt Q194T2); type: functional, Influenza A virus (A/California/07/2009(H1N1))
Nonstructural protein 1, sequence (Q194T2 whole entry): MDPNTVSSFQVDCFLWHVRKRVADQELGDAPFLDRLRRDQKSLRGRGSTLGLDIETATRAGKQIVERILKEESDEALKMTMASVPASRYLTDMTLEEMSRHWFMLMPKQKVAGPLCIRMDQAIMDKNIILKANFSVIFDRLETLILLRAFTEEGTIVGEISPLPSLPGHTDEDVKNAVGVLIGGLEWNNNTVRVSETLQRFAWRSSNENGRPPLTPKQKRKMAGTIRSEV

[3] = molecular target: T1, Short transient receptor potential channel 4 (Mus musculus, UniProt Q9QUQ5); test: mouse TRPC4 channel inhibitors, dose response, cell-based, HEK293 TRPC4/mu-opioid, Fluo-4 calcium (AID 434942); type: functional;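 note: potency of inhibitors blocking the TRPC4 calcium response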
T1 sequence (Q9QUQ5 whole entry): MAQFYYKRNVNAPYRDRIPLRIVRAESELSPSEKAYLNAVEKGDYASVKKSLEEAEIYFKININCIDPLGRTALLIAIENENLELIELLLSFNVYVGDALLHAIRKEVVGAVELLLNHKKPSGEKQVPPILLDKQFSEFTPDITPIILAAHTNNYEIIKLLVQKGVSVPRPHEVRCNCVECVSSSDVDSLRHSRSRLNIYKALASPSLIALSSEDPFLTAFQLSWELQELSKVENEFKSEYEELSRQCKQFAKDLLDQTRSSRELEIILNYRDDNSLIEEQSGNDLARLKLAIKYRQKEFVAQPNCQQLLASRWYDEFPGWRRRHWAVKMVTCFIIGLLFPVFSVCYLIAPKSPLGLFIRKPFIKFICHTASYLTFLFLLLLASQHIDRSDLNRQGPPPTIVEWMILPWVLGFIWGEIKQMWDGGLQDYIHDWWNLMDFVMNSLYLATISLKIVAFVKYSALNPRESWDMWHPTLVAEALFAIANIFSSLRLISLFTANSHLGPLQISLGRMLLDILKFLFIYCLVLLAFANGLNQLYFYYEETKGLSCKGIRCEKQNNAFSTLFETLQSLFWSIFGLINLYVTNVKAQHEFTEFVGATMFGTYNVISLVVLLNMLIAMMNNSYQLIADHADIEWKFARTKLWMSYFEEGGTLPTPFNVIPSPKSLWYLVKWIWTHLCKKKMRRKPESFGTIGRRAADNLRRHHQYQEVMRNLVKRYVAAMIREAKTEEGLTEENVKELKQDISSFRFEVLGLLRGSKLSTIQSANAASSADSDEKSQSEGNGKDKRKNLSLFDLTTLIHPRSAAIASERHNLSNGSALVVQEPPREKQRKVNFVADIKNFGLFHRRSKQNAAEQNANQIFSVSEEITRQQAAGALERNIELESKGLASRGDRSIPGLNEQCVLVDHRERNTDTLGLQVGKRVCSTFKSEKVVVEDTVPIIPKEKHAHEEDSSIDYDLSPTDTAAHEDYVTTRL

[4] = molecular target: T2, Zinc finger protein mex-5 (Caenorhabditis elegans, UniProt Q9XUB2); test: MEX-5/TCR-2 RNA interaction inhibitors, dose response, biochemical, C. elegans, fluorescence polarization (AID 1960)
T2 sequence (Q9XUB2 whole entry): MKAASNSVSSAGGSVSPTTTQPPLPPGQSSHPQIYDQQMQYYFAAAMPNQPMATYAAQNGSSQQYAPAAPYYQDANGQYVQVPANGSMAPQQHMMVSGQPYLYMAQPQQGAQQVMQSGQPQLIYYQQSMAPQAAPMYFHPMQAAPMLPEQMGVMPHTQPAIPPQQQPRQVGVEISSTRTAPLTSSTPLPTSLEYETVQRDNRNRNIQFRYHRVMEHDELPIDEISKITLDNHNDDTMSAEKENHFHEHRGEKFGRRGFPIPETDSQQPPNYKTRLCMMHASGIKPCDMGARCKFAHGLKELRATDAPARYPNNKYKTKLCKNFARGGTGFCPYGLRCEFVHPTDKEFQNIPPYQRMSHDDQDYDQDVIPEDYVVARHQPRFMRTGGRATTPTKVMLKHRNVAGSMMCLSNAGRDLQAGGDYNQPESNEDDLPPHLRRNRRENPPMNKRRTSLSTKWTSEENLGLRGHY

[5] = growth suppression of beta-catenin-knockout colon cells, dose response, cell-based, HCT116, human colon tumor (AID 1045); type: functional;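 note: HCT116 colon tumor cells with beta catenin knocked out; cells exposed to compound for 60 hours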
[6] = molecular target: T3, RNA-binding protein pos-1 (Caenorhabditis elegans, UniProt G5EF15); test: inhibitors of POS-1/mex-3 RNA binding, dose response, biochemical, fluorescence polarization (AID 1964);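 note: purified POS-1 fused to maltose binding protein made in E. coli; potency of compounds blocking POS-1 binding to fluorescent RNA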
T3 sequence (G5EF15 whole entry): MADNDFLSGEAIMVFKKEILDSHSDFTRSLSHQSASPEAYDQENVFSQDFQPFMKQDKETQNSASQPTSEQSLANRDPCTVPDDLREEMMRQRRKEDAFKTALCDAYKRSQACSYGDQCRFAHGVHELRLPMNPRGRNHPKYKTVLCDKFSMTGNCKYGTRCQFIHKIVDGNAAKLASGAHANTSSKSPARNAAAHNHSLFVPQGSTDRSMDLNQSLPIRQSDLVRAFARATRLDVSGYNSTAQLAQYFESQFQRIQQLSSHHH

[7] = growth suppression of PTEN-null colon cells, dose response, cell-based, HCT116 PTEN knockout (AID 1047); type: functional;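 note: HCT116 colon tumor cells with PTEN knocked out; cells exposed to compound for 60 hours before readout; potency for loss of cell viability measured by luminescence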
[8] = molecular target: G-protein coupled receptor 35 (Homo sapiens, UniProt Q9HC97); test: GPR35 antagonists blocking zaprinast-driven arrestin recruitment, primary screen, imaging, U2OS, beta-arrestin-GFP, zaprinast agonist (AID 2058); type: functional;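 note: antagonist potency meaning inhibition of agonist-induced arrestin redistribution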
G-protein coupled receptor 35, sequence (Q9HC97 whole entry): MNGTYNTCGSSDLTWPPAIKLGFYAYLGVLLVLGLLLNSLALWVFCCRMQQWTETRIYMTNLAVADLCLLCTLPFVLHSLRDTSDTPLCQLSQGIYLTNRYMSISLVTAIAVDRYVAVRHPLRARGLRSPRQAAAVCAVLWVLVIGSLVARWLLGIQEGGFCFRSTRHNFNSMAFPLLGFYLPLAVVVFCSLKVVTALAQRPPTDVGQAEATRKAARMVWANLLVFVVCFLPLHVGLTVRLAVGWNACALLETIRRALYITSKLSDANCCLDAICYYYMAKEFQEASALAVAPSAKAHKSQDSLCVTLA

[9] = molecular target: T1, Short transient receptor potential channel 4; test: mouse TRPC4 channel activators, dose response, cell-based, HEK293 TRPC4/mu-opioid, Fluo-4 calcium (AID 434937); type: functional
[10] = molecular target: T4, Hexokinase (Trypanosoma brucei, UniProt Q38C41); test: Confirmation assay for inhibitors of Trypanosoma brucei hexokinase 1-Analogue-first series. [Related pubchem assays (depositor defined):AID1430, AID1632, AID2516, AID2560, AID2579, AID2600, AID449725, AID492951]; type: functional
T4 sequence (Q38C41 whole entry): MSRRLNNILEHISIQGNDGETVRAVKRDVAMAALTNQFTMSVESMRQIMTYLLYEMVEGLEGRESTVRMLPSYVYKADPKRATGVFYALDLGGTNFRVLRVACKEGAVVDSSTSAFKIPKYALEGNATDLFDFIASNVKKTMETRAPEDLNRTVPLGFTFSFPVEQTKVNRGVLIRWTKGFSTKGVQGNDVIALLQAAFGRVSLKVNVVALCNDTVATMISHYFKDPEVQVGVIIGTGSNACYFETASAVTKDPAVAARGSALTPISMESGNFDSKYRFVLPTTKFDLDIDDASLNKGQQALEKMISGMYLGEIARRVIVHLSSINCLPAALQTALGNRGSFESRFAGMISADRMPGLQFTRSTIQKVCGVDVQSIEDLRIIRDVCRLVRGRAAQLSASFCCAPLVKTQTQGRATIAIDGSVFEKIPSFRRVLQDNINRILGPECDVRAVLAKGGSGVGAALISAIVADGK

[11] = molecular target: T5, Corticotropin-releasing factor receptor 2/Corticotropin-releasing factor-binding protein (Homo sapiens, UniProt P24387+Q13324); test: activators of CRF receptor 2 with binding protein – uHTS hits, confirmation (AID 602473); type: functional; conditions: read-out: EC50_Mean
T5 sequence (Q13324 whole entry): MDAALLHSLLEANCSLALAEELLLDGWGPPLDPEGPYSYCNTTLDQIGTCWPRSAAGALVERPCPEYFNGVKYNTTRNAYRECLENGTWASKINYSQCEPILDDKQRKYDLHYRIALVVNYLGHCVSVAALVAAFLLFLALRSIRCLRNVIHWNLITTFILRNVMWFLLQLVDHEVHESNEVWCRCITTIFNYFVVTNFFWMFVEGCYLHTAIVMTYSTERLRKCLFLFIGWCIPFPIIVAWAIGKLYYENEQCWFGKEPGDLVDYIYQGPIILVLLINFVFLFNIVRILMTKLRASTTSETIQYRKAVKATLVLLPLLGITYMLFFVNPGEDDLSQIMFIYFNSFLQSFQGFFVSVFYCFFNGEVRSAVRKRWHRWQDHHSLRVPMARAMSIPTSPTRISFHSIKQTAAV
T5 sequence (P24387 whole entry): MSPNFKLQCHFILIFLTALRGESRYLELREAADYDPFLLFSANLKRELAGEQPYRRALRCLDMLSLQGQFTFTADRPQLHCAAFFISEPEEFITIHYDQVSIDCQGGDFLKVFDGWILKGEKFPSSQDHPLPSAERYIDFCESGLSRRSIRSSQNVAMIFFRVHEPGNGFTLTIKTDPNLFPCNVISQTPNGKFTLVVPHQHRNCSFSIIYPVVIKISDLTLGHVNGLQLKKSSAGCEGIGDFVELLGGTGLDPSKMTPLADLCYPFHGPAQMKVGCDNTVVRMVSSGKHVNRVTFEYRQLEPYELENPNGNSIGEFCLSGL

[12] = molecular target: T6, Endoribonuclease toxin MazF (Escherichia coli K-12, UniProt P0AE70); test: MazF toxin RNase activators, dose response, biochemical, fluorescence, single-stranded RNA substrate, uHTS hits (AID 588481); type: functional
T6 sequence (P0AE70 whole entry): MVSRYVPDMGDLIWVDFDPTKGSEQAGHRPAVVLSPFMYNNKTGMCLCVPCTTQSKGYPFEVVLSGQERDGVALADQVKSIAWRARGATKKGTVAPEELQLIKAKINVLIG

[13] = molecular target: T6, Endoribonuclease toxin MazF; test: fluorescent RNA oligo signal without MazF, dose response, counter-screen for MazEF activator project, biochemical, fluorescence, single-stranded RNase substrate (AID 588502); type: functional

Voltage-dependent T-type calcium channel subunit alpha-1H, sequence (O95180 whole entry): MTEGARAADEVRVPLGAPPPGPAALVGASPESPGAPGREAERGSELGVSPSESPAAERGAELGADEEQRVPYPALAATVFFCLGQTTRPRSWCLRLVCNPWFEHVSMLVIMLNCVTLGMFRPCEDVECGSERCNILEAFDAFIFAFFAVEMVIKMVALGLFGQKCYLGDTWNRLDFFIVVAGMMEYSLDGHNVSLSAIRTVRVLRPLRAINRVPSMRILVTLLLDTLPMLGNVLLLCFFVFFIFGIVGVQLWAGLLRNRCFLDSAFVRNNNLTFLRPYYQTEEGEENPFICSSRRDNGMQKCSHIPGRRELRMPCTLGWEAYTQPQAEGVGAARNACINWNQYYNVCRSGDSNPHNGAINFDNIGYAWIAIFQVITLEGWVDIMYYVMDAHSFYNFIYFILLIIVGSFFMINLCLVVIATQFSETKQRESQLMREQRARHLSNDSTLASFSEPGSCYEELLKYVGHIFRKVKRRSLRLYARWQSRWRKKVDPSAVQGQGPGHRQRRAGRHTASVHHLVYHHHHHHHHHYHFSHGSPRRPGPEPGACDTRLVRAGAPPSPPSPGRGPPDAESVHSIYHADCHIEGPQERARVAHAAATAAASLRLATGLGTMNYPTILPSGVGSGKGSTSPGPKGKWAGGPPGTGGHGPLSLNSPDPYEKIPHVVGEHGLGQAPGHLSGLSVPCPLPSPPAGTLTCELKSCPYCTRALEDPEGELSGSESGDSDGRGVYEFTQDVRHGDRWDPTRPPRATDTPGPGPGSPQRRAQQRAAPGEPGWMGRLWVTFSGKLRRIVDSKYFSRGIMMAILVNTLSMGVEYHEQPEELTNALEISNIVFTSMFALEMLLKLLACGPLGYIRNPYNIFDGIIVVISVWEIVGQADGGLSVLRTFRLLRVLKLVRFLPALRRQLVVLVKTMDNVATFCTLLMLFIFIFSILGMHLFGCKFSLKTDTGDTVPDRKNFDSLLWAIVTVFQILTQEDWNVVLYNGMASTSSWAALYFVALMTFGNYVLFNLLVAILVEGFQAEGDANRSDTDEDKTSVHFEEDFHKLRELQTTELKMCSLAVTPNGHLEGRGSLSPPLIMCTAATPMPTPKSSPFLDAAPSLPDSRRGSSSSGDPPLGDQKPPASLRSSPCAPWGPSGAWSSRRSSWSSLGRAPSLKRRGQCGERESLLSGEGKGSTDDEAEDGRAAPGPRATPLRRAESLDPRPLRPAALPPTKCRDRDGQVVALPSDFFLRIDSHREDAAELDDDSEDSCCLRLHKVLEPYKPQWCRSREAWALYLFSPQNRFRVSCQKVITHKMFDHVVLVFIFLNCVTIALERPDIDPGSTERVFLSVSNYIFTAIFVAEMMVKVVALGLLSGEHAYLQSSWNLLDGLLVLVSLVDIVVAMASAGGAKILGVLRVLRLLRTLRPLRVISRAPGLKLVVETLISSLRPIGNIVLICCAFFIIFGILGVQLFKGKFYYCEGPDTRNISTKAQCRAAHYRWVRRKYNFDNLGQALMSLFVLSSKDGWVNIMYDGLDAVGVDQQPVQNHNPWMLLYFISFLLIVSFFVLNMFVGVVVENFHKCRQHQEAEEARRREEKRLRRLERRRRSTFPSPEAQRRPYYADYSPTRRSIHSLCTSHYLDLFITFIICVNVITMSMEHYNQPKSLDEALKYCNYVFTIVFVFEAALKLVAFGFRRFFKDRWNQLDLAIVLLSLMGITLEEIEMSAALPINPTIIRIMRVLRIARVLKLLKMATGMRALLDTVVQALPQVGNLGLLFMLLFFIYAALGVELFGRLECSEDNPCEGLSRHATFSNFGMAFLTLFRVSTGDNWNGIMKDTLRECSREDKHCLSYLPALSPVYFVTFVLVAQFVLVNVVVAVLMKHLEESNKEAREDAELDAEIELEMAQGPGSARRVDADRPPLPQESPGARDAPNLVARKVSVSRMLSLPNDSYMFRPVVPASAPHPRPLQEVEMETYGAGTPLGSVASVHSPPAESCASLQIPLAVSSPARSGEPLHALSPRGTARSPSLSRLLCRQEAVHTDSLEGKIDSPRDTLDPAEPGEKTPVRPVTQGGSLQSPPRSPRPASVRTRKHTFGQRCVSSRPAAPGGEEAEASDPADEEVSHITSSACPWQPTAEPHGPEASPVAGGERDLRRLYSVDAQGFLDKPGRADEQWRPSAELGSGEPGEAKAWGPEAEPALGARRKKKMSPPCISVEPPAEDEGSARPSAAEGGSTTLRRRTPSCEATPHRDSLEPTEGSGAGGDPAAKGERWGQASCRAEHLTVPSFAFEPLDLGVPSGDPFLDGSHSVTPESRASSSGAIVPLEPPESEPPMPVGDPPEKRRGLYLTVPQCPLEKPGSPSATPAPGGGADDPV

In the case of Cc1ccccc1NC(=O)c1sc2nc3c(c(-c4ccco4)c2c1N)CCCC3, the EC50 [1] is reported as 10.1 µM (active).
With CCOC(=O)C1CCCN(S(=O)(=O)c2ccc(OC)c3ccccc23)C1 (stereo not drawn) the EC50 [1] was 0.647 µM (active).
In the case of CN(C)c1ccc(NC(=O)CC(NCc2ccccn2)C(=O)O)cc1 (stereo not drawn), the IC50 [2] is reported as 1.51 µM (active).
In the case of CCCCc1nc(CN2CCCC(C(=O)c3ccc(SC)cc3)C2)c[nH]1 (stereo not drawn), the EC50 [3] is reported as 1.88 µM (active).
In the case of O=C(c1cccc(C(=O)N2CCN(c3ccccc3)CC2)c1)N1CCN(c2ccccc2)CC1, the EC50 [3] is reported as 1.06 µM (active).
With CCN(CC)c1ccc(/C=C(/C#N)c2nc3ccccc3[nH]2)c(OC(C)C)c1 the EC50 [4] was 8.13 µM (active), the EC50 [5] was 11.1 µM (active) and the EC50 [6] was 3.96 µM (active). The EC50 [7] was 11.2 µM (active), the IC50 [8] was 1.19 µM (active) and the EC50 [1] was 3.84 µM (active).
For CN(C)CCN(C(=O)C1CCCCC1)c1nc2cc3c(cc2s1)OCO3, the EC50 [9] was 6.68 µM (active) and the EC50 [3] was 2.66 µM (active).
With COc1ccc(C(=O)Nc2cc(-c3ccccc3)ccc2C(=O)O)cc1 the IC50 [10] was > 25 µM (inactive).
For COc1ccc(C(=O)Nc2cc(Cl)ccc2O)cc1, the IC50 [10] was 25 µM (inactive).
For O=C(Nc1cc(Cl)ccc1C(=O)O)c1ccc(Cc2ccccc2)cc1, the IC50 [10] was 13.6 µM (active).
With Cc1ccc(S(=O)(=O)Nc2cccc(C(=O)NCC(c3ccco3)N3CCCC3)c2)cc1F (stereo not drawn) the EC50 [9] was 1.5 µM (active) and the EC50 [3] was 0.149 µM (active).
For COc1ccc(/C=c2\s/c(=C/C(=O)c3ccc(C)cc3)[nH]c2=O)c(OC)c1, the EC50 [11] was 10.7 µM (active), the EC50 [12] was > 99 µM (inactive) and the IC50 [8] was 1.76 µM (active). For the same compound, the EC50 [13] was > 99 µM (inactive).
In the case of COc1ccc(NC(=O)c2ccccc2C(=O)O)cc1, the IC50 [10] is reported as > 25 µM (inactive).
